Square brackets hold non-standard residues; d marks the D form. Ends that are not written are not given here. * marks the point of attachment. Cyclohexyl = cyclohexyl group capping the N-terminus, C1CCC(*)CC1; Fmoc = O=C(OCC1c2ccccc2-c2ccccc21)*
Columns and labels:
[1] = test system: Heliothis peltigera female moths; assay: Topical application: inhibition of sex pheromone biosynthesis (cuticular bioavailability); type: in vivo; conditions: for comparison of activity in IIS vs. tap water: topical application; for inhibition of pheromone biosynthesis / lowering of pheromone content compared to the solvent: 10 pmol
Method: FIG. 2. is a graph showing the effect of topically applied peptides on the inhibition of sex pheromone biosynthesis in Heliothis peltigera female moths. • The tested peptides are those listed in Table 1 (1-10, respectively). • Peptides were tested at a concentration of 10 pmol and were applied in IIS (0.5% ethanol, 0.05% Tween-80 in DDW), and DDW for 1 h. • Sex pheromone content is expressed as a percentage of the endogenous pheromone content obtained using control untreated moths (defined as 100%). Statistical analysis compared pheromone content in the presence of each peptide with that obtained with the corresponding solvents themselves (indicated by an asterisk).
FIG. 3A and FIG. 3B are graphs showing the dose response of Ac-A-dPhe-4 (3A) or Ac-A-dPhe-6 (3B) on inhibition of sex pheromone biosynthesis in Heliothis peltigera female moths. Peptides were applied in DDW for 1 h. • Sex pheromone content is expressed as a percentage of the endogenous pheromone content obtained using control untreated moths (defined as 100%). Statistical analysis compared pheromone content in the presence of each peptide at the indicated concentrations with that obtained with the solvent itself (indicated by an asterisk). A similar statistical analysis was also made against the pheromone content of untreated moths (indicated by #). […] Differences in the potency of the peptides at the indicated concentrations are depicted by letters.
FIG. 4. is a graph showing the time response of 1 nmol Ac-A-dPhe-4 and Ac-A-dPhe-6 (applied in DDW) on inhibition of sex pheromone biosynthesis in Heliothis peltigera female moths. • Sex pheromone content is expressed as a percentage of the endogenous pheromone content obtained using control untreated moths (defined as 100%). Statistical analysis compared pheromone content in the presence of each peptide at the indicated times with that obtained with the solvent itself at the same time point (indicated by an asterisk). […] Differences in the potency of the peptides at the indicated time points are depicted by letters. (Ac-A-dPhe-4: small letters; Ac-A-dPhe-6: capital letters).
FIG. 5A to FIG. 5C are graphs showing the effect of topically applied peptides on inhibition of sex pheromone biosynthesis in Heliothis peltigera female moths. • The tested peptides are those listed in Table 1 (1-6, respectively). Peptides were tested at a concentration of 1000 pmol (5A), 300 pmol (5B) or 100 pmol (5C) and were applied in DDW, DMSO and IIS for 7h. • Sex pheromone content is expressed as a percentage of the endogenous pheromone content obtained using control untreated moths (defined as 100%). Statistical analysis compared pheromone content in the presence of each peptide in a given solvent (DDW, DMSO or ITS) with that obtained with the solvents themselves (indicated by an asterisk).
a) Topical Application (TA)
This assay is used to determine cuticular penetrability.
The tested peptides are applied onto the insect (e.g. moths) at scotophase (when pheromone is naturally synthesized) in a given solvent for the indicated times.
Antagonistic activity was tested at a concentration of 10 pmol and the peptides were topically applied in two solvents: DDW and IIS (FIG. 2). […] Ac-A-dPhe-6 was the second best in IIS inhibiting pheromone biosynthesis by 74%.
Only minor differences in activity is observed as a function of a dose (with the exception of Ac-A-dPhe-4 at 1000 pmol, which inhibited pheromone production to a lesser extent of about 50%).
All experiments were carried out at the scotophase and the peptides were applied one hour before pheromone glands were excised (+5) and tested for pheromone content (at the 6th hour of the scotophase when the pheromone content is at its highest level). The high inhibition obtained under the tested conditions, indicates the extremely fast and high penetrability and bioactivity of the peptides of the invention. […]

[2] = test system: Spodoptera littoralis larvae; assay: Melanotropic inhibitory activity: injection with a stimulator (PBAN, PT, LPK, DH); type: in vivo; conditions: for Melanotropic inhibitory activity, stimulator DH: injected with DH (diapause hormone); for Melanotropic inhibitory activity, stimulator DH / Melanotropic inhibitory activity, stimulator LPK / Melanotropic inhibitory activity, stimulator PBAN / Melanotropic inhibitory activity, stimulator PT: 100 pm; for Melanotropic inhibitory activity, stimulator LPK: injected with LPK (leucopyrokinin); for Melanotropic inhibitory activity, stimulator PBAN: injected with PBAN, inhibition = 100 minus % melanization with vs without peptide; for Melanotropic inhibitory activity, stimulator PT: injected with PT (pheromonotropin); for inhibition of melanin synthesis stimulated by LPK: stimulator LPK; for inhibition of melanin synthesis stimulated by PBAN: stimulator PBAN; for inhibition of melanin synthesis stimulated by PT: stimulator PT
Description: FIG. 12. is a graph showing the melanotropic inhibitory activity of the peptides of the invention against different stimulators of the PK/PBAN family: PBAN, PT (pheromonotropin), LPK (leucopyrokinin), DH (diapause hormone). • Degree of cuticular melanization is expressed as a percentage of the melanization obtained by injection the elicitor itself (PBAN, PT, LPK or DH) in the absence of the tested peptide (not shown). Statistical analysis compared the degree of melanization in the presence and absence of the tested peptide with any given elicitor. An asterisk indicates a significant difference between the degree of melanization obtained in the presence of the peptide. This assay is used to test the agonistic properties of the tested peptides (in adult females), and to determine the peptides melanotropic agonistic or antagonistic properties (in larvae). It was also used to determine the activity of peptides that were stored outdoors for different amounts of time. The peptides are injected into either adult female insects (e.g. moths) at photophase (when pheromone is not synthesized naturally, but the insect has the ability to produce pheromone upon stimulation with a agonist) or into 5th instar larvae. Agonistic properties were tested by injection of the peptides alone; antagonistic properties were determined by injection of the peptide together with a stimulator. The ability of the peptides to inhibit cuticular melanin synthesis was tested in Spodoptera littoralis larvae. Inhibitory activity was tested by injecting the peptides to Spodoptera littoralis larvae together with a given stimulator: PBAN, PT, LPK and DH. Inhibition is expressed as 100 minus the ratio in percentage (%) between the extents of cuticular melanization obtain in the presence and absence of the tested peptide (Table 2).

Substance	comparison of activity in IIS vs. tap water [1]	inhibition of pheromone production ([1]; topical in DDW, 1 h, 1000 pmol)	inhibition of pheromone biosynthesis ([1]; topical, in DDW, 1 h)	activity as a function of the dose ([1]; topical, 7 h, in IIS and DMSO, 100, 300, 1000 pmol)	Melanotropic inhibitory activity, stimulator DH [2]	Melanotropic inhibitory activity, stimulator LPK [2]	Melanotropic inhibitory activity, stimulator PBAN [2]	Melanotropic inhibitory activity, stimulator PT [2]	inhibition of melanin synthesis stimulated by LPK [2]	inhibition of melanin synthesis stimulated by PBAN [2]	inhibition of melanin synthesis stimulated by PT [2]	lowering of pheromone content compared to the solvent ([1]; topical, in IIS, 1 h)	inhibition of pheromone biosynthesis ([1]; topical, in IIS, 1 h)	potency as a function of application time ([1]; topical, 1 nmol in DDW, 1, 3 and 7 h)	lowering of pheromone content compared to the solvent ([1]; topical, in DDW, 1 h)
Acetyl-Ala-[dPhe]-Pro-Arg-Leu-amide (Ac-A[dF]PRL-NH2; SMILES CC(=O)N[C@@H](C)C(=O)N[C@H](Cc1ccccc1)C(=O)N1CCC[C@H]1C(=O)N[C@@H](CCCNC(=N)N)C(=O)N[C@@H](CC(C)C)C(N)=O) [Ac-A-dPhe-4]	No differences	about 50%	83%	less active at 100 pmol compared to 300 and 1000 pmol	6%	31%	54%	100%	inhibited LPK	inhibited PBAN	inhibited PT	–	–	–	–
Cyclohexyl-Ala-[dPhe]-Pro-Arg-Leu-amide (Cyclohexyl-A[dF]PRL-NH2; SMILES CC(C)C[C@H](NC(=O)[C@H](CCCNC(=N)N)NC(=O)[C@@H]1CCCN1C(=O)[C@@H](Cc1ccccc1)NC(=O)[C@H](C)NC1CCCCC1)C(N)=O) [Cyc-A-dPhe-4]	No differences	–	–	–	15%	100%	7%	6%	inhibited LPK	–	–	failed to lower pheromone content	–	–	–
Acetyl-Arg-Tyr-Phe-[dPhe]-Pro-Arg-Leu-amide (Ac-RYF[dF]PRL-NH2; SMILES CC(=O)N[C@@H](CCCNC(=N)N)C(=O)N[C@@H](Cc1ccc(O)cc1)C(=O)N[C@@H](Cc1ccccc1)C(=O)N[C@H](Cc1ccccc1)C(=O)N1CCC[C@H]1C(=O)N[C@@H](CCCNC(=N)N)C(=O)N[C@@H](CC(C)C)C(N)=O) [Ac-dPhe-4]	–	–	–	–	22%	51%	70%	100%	–	inhibited PBAN	inhibited PT	–	–	–	–
Fmoc-Ala-Ser-Pro-[dPhe]-Leu-amide (Fmoc-ASP[dF]L-NH2; SMILES CC(C)C[C@H](NC(=O)[C@@H](Cc1ccccc1)NC(=O)[C@@H]1CCCN1C(=O)[C@H](CO)NC(=O)[C@H](C)NC(=O)OCC1c2ccccc2-c2ccccc21)C(N)=O) [Fmoc-A-dPhe-6]	–	–	–	–	35%	100%	67%	100%	–	–	–	–	–	–	–
Acetyl-Ala-Ser-Pro-[dPhe]-Leu-amide (Ac-ASP[dF]L-NH2; SMILES CC(=O)N[C@@H](C)C(=O)N[C@@H](CO)C(=O)N1CCC[C@H]1C(=O)N[C@H](Cc1ccccc1)C(=O)N[C@@H](CC(C)C)C(N)=O) [Ac-A-dPhe-6]	No differences	–	–	–	29%	0%	63%	100%	inhibited LPK	inhibited PBAN	inhibited PT	–	74%	did not differ	–
Fmoc-Ala-[dPhe]-Pro-Arg-Leu-amide (Fmoc-A[dF]PRL-NH2; SMILES CC(C)C[C@H](NC(=O)[C@H](CCCNC(=N)N)NC(=O)[C@@H]1CCCN1C(=O)[C@@H](Cc1ccccc1)NC(=O)[C@H](C)NC(=O)OCC1c2ccccc2-c2ccccc21)C(N)=O) [Fmoc-A-dPhe-4]	No differences	–	–	–	28%	100%	68%	100%	–	–	–	–	–	–	–
Cyclohexyl-Ala-Ser-Pro-[dPhe]-Leu-amide (Cyclohexyl-ASP[dF]L-NH2; SMILES CC(C)C[C@H](NC(=O)[C@@H](Cc1ccccc1)NC(=O)[C@@H]1CCCN1C(=O)[C@H](CO)NC(=O)[C@H](C)NC1CCCCC1)C(N)=O) [Cyc-A-dPhe-6]	–	–	–	–	15%	100%	67%	26%	inhibited LPK	inhibited PBAN	–	–	–	–	–
Arg-Tyr-Phe-Ser-Pro-[dPhe]-Leu-amide (RYFSP[dF]L-NH2; N-terminus assumed; SMILES CC(C)C[C@H](NC(=O)[C@@H](Cc1ccccc1)NC(=O)[C@@H]1CCCN1C(=O)[C@H](CO)NC(=O)[C@H](Cc1ccccc1)NC(=O)[C@H](Cc1ccc(O)cc1)NC(=O)[C@@H](N)CCCNC(=N)N)C(N)=O) [dPhe-6]	–	–	–	–	15%	78%	49%	74%	–	–	–	–	–	–	failed to lower pheromone content
Acetyl-Arg-Tyr-Phe-Ser-Pro-[dPhe]-Leu-amide (Ac-RYFSP[dF]L-NH2; SMILES CC(=O)N[C@@H](CCCNC(=N)N)C(=O)N[C@@H](Cc1ccc(O)cc1)C(=O)N[C@@H](Cc1ccccc1)C(=O)N[C@@H](CO)C(=O)N1CCC[C@H]1C(=O)N[C@H](Cc1ccccc1)C(=O)N[C@@H](CC(C)C)C(N)=O) [Ac-dPhe-6]	–	–	–	–	35%	8%	59%	100%	–	–	–	–	–	–	–

— US9951110B2, “Neuropeptides useful as insecticides” (THE STATE OF ISRAEL, MINISTRY OF AGRICULTURE & RURAL …, priority 2013, dated 2018)
